Data set [1] can be described thus: Superoxide testing (SOTS-1 as superoxide radical source). The data set is classed as physicochemical. The note with it: 100-fold excess of superoxide radical (SOTS-1); 30 min room temperature; pH 7.5. On the procedure:
FIG. 3E is a graph showing the relative fluorescence intensity of several NIR dyes and the superoxide-sensitive dye DHE (positive control) at different concentrations of the superoxide radical source SOTS-1 (E).
Superoxide was generated in accordance with the literature. In brief, SOTS-1 (Cayman Chemicals, Ann Arbor, MI) was dissolved in dimethylformamide (Sigma Aldrich) and added to a near-infrared fluorescent dye-containing ([…]; DHE concentration 10 μM) isotonic phosphate buffer 50 mM at pH 7.5 ([…]) and protected from light. After 30 min at room temperature, the fluorescence intensity was determined by a plate reader (BioTek NEO2) at the fluorescence excitation and emission wavelength provided by the manufacturer.

Data set [2] concerns the target T1, horseradish peroxidase (HRP) (Armoracia rusticana, UniProt P00433).
T1 construct: purchased Thermo Fisher Scientific A22188
T1 sequence (P00433 31-338): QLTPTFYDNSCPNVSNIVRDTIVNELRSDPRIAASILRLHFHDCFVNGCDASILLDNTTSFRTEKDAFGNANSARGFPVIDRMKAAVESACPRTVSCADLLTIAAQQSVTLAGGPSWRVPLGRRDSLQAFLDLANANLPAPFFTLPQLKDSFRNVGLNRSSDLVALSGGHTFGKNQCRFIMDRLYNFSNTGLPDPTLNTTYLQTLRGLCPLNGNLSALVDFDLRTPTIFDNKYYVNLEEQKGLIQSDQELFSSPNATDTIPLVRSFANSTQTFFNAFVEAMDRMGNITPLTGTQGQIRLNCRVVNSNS
Nature of the data set: Screening of NIR dye library for HRP substrates (hydrogen peroxide-dependent loss of fluorescence). In kind it is biochemical. The note with it: for enzymatic oxidation by HRP, positive controls of the library screening: known HRP substrates, homovanillic acid 0.99 mM, HRP 0.10 U/mL, 10 min, Amplex Red 30 min, room temperature; for oxidation by HRP (loss of fluorescence) at different hydrogen peroxide concentrations: NIR dye 2.5 μM, HRP 105 mU/mL, phosphate buffer 50 mM pH 7.5; for oxidation by HRP (loss of fluorescence) at different hydrogen peroxide concentrations / hydrogen peroxide sensing profile (loss in relative fluorescence intensity): 10 min room temperature; for hydrogen peroxide sensing profile (loss in relative fluorescence intensity): different dye concentrations, HRP-containing buffer pH 7.5. The procedure: FIGS. 2A-2C are related to screening of near-infrared (NIR) dye library for HRP substrates. NIR dye concentration: 2.5 μM; HRP concentration: 105 mU/mL; buffer composition: phosphate buffer 50 mM at pH 7.5; 10 min incubation time at room temperature. All results as means+SD (n=3).
FIG. 2E is a graph showing the relative fluorescence intensity of a homovanillic acid-containing solution in the presence of hydrogen peroxide and HRP, therefore evaluating hydrogen peroxide sensing with homovanillic acid (a known substrate of HRP) and HRP. HRP catalyzes the dimerization of homovanillic acid to a fluorescent product in the presence of hydrogen peroxide. HRP concentration: 0.10 U/mL; homovanillic acid: 0.99 mM; λex 312 nm; λem 430 nm; incubation time 10 min at room temperature. All results as mean±SD (n=3).
FIG. 2F is a graph showing the relative fluorescence intensity of an Amplex Red®-containing solution in the presence of hydrogen peroxide and HRP, therefore evaluating hydrogen peroxide sensing with Amplex Red® (a known substrate of HRP) and HRP. HRP catalyzes the oxidation of Amplex Red® to the fluorescent product resorufin in the presence of hydrogen peroxide. Excitation/emission wavelengths: λex 530 nm; λem 590 nm; incubation time 30 min at room temperature. Assay conducted in accordance to manufacturer's instructions. All results as mean±SD (n=3).
FIGS. 3B-3E are related to hydrogen peroxide sensing using HRP-mediated S7 oxidation. NIR dye concentration unless stated: 10 μM (FIG. 3C), 7.5 μM (FIG. 3D); HRP concentration: 105 mU/mL (FIG. 3B); buffer composition: phosphate buffer 50 mM at pH 7.5; 10 (FIGS. 3B, 3D) or 30 min (FIG. 3E) incubation time at room temperature. […] All results as means+SD (n=3).
(§1) NIR dyes were dissolved in water (sulfo-cyanine dyes, Lumiprobe, Hannover, Germany, and all investigated IRDyes except for IRDye 800RS, LI-COR Biosciences, Lincoln, NE) or dimethyl sulfoxide (Sigma Aldrich, St. Louis, MO; cyanine dyes, Lumiprobe, and IRDye 80016, LI-COR Biosciences). 10 μL of dye solution (final 2.5 μM) were added to 100 uL of HRP solution (final 105 mU/mL) and hydrogen peroxide standards (both from Amplex™ Red Hydrogen Peroxide/Peroxidase Assay Kit A22188, Thermo Fisher Scientific, Waltham, MA) in sodium chloride-containing phosphate buffer (Sigma Aldrich) 50 mM at pH 7.5 at 300 mOsmol/kg and protected from light. After 10 min at room temperature, the fluorescence intensity was determined by a plate reader (BioTek NEO2, BioTek, Winooski, VT) at the fluorescence excitation and emission wavelength provided by the manufacturer.
To determine the absorbance spectra of S7, 10 μL of dye solution (final 7.5 μM) were added to 100 μL of HRP solution (final 105 mU/mL) and hydrogen peroxide standards in isotonic phosphate buffer 50 mM at pH 7.5. After 15 min, the absorbance spectra were recorded by a plate reader (BioTek NEO2).

Data set [3] in a line: Fluorescence of dyes with hydrogen peroxide in HRP-free buffer. The data set is classed as physicochemical. The note with it: 400-fold molar excess of hydrogen peroxide. On the procedure:
as §1, with “([…]” for “(final 2.5 μM) were added to 100 uL of HRP solution (final 105 mU/mL) and hydrogen peroxide standards (both from Amplex™ Red Hydrogen”

Experimental findings from US12637703B2, “Compositions and methods for detection of oxidizable analytes” (President and Fellows of Harvard College, priority 2019, dated 2026) are described below.

As to `CN1/C(=C/C=C/C=C/C2=[N+](CCCCCC(=O)O)c3ccc(S(=O)(=O)O)cc3C2(C)C)C(C)(C)c2cc(S(=O)(=O)O)ccc21` [sulfo-cyanine 5], the “fluorescence emission in the presence of superoxide radical” value in data set [1] was “preserved their fluorescence emission”.
Turning to `COc1cc(CC(=O)O)ccc1O` [homovanillic acid], the “enzymatic oxidation by HRP, positive controls of the library screening” value in data set [2] was “enzymatically oxidized in a hydrogen peroxide-dependent manner”.
Same read-out and setting: the entry for `CC(=O)N1c2ccc(O)cc2Oc2cc(O)ccc21` [Amplex Red®] is “enzymatically oxidized in a hydrogen peroxide-dependent manner”.
Take `CC1(C)C(/C=C/C=C/C=C/C=C2\N(CCCCS(=O)(=O)O)c3ccc4ccccc4c3C2(C)C)=[N+](CCCCS(=O)(=O)[O-])c2ccc3ccccc3c21` [ICG, indocyanine green]: in data set [2], the “oxidation by HRP (loss of fluorescence) at different hydrogen peroxide concentrations” value is recorded as “oxidized by HRP in a hydrogen peroxide concentration-dependent manner” and the “hydrogen peroxide sensing profile (loss in relative fluorescence intensity)” value is “linear hydrogen peroxide sensing profile”. Further, the “fluorescence properties upon exposure to hydrogen peroxide without HRP” value in data set [3] is recorded as “preserved their fluorescence properties”.
Turning to sulfo-cyanine 7 [S7], in data set [2], the “oxidation by HRP (loss of fluorescence) at different hydrogen peroxide concentrations” value is reported as “oxidized by HRP in a hydrogen peroxide concentration-dependent manner” and the “hydrogen peroxide sensing profile (loss in relative fluorescence intensity)” value is “followed a sigmoid curve”. The “fluorescence emission in the presence of superoxide radical” value in data set [1] was “preserved their fluorescence emission”. For the same compound, in data set [3], the “fluorescence properties upon exposure to hydrogen peroxide without HRP” value was “preserved their fluorescence properties”.
